The numbers were not newly measured in US10716757B2, “Liposomal formulation for the oral hepatic delivery of drugs” (Universität Heidelberg, priority 2015, dated 2020), which cites them from elsewhere.

The conditions of data set [1]: film method followed by extrusion, reference [17].
For data set [2] the following is noted: Myrcludex B per se, no liposomes.

As for `C[C@@H](O)[C@@H]1NC(=O)[C@H](CCCCN)NC(=O)[C@@H](Cc2c[nH]c3ccccc23)NC(=O)[C@H](Cc2ccccc2)NC(=O)[C@@H](NC(=O)[C@H](N)Cc2ccccc2)CSSC[C@@H](C(=O)N[C@H](CO)[C@@H](C)O)NC1=O` [octreotide], the encapsulation efficiency in data set [1] is reported as 13.0 % (m/m). Regarding Myr-HBVpreS/2-48 [Myrcludex B], the oral bioavailability in data set [2] is listed as less than 1%.
